Publication PMC7145423, “Cooperative enzymatic control of N-acyl amino acids by PM20D1 and FAAH” (eLife, 2020)

What was measured:
Format in all cases: biochemical
PM20D1-flag [1] = target: T1, PM20D1-flag (Mus musculus, UniProt Q8C165); experiment: hydrolysis, LC-MS; conditions: 100 µM substrate, 100 µg conditioned medium protein, PBS, 1 hr 37°C
T1 construct: flag-tagged, secreted, conditioned medium of transfected HEK293T cells
T1 sequence (Q8C165 25-503): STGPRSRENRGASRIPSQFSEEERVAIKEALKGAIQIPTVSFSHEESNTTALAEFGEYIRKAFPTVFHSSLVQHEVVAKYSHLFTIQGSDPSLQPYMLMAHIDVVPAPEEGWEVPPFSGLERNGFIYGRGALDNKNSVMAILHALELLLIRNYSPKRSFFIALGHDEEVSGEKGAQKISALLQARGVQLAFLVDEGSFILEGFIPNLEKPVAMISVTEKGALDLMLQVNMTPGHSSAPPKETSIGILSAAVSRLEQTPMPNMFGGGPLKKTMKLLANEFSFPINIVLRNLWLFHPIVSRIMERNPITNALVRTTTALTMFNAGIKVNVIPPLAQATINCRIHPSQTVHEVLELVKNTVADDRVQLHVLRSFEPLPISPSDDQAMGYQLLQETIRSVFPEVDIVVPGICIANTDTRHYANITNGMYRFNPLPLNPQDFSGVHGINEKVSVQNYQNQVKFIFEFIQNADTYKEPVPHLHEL

FAAH-flag = target: T2, FAAH-flag (Mus musculus, UniProt O08914); experiment: hydrolysis, LC-MS; conditions: 100 µM substrate, 100 µg lysate protein, PBS, 1 hr 37°C
T2 construct: C-terminal flag tag, transient transfection in HEK293T, cell lysate
T2 sequence (O08914 1-579): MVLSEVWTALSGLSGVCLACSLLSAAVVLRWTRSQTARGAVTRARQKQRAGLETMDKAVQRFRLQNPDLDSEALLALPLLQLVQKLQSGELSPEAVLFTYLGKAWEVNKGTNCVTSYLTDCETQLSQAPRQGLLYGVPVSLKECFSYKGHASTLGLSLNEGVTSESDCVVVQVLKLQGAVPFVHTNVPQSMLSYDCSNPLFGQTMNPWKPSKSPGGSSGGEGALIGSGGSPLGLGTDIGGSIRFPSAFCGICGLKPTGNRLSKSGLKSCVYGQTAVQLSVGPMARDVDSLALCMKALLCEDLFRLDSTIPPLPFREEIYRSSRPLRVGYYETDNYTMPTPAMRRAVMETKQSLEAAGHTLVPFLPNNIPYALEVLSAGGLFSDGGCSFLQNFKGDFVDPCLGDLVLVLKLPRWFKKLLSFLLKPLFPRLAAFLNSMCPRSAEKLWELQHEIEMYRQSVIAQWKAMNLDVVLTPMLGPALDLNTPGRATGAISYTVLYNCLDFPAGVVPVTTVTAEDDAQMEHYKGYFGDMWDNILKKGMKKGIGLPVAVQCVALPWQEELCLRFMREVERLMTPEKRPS

PM20D1-flag [2] = target: T1, PM20D1-flag; experiment: condensation with amino acid (synthase direction), LC-MS; conditions: co-substrates Gly, Ser or Phe; PBS, 1 hr 37°C

| Structure (SMILES) | hydrolysis, LC-MS (FAAH-flag) | other results |
| --- | --- | --- |
| CCCCC/C=C\C/C=C\C/C=C\C/C=C\CCCC(=O)NCC(=O)O [C20:4-Gly] | – | hydrolysis, LC-MS (PM20D1-flag [1]): PM20D1 exhibited robust hydrolysis activity only on C20:4-Gly |
| CCCCC/C=C\C/C=C\C/C=C\C/C=C\CCCC(=O)N[C@@H](CO)C(=O)O [C20:4-Ser] | A strong preference was observed for C20:4-Ser over the other three N-acyl amino acid substrates | – |
| CCCCC/C=C\C/C=C\C/C=C\C/C=C\CCCC(=O)NCCO [anandamide] | FAAH showed robust hydrolysis activity with anandamide as a substrate | – |
| CCCCC/C=C\C/C=C\C/C=C\C/C=C\CCCC(=O)O [arachidonic acid] | – | condensation with amino acid (synthase direction), LC-MS (PM20D1-flag [2]): PM20D1 also efficiently catalyzed the condensation of arachidonic acid with all three |
